Data on 26 compounds can be found in patent publication US12180226B2, “Spirotricycle RIPK1 inhibitors and methods of uses thereof” (Merck Sharp & Dohme LLC, priority 2021, dated 2024).

Counter-ions that a name gives are not always drawn. Where only a bound is given, the exact number is not on record here.

In the assay the target is RIPK1 (recombinant GST-RIPK1 kinase domain, residues 1-327) (Homo sapiens (Human), UniProt Q13546). Briefly: RIPK1-ADP-Glo Enzymatic Assay. The class given is biochemical. Particulars: ADP-Glo; 25 nM GST-RIPK1, 300 μM ATP; assay lower limit ~25 nM; read-out: RIPK1 V0 Ec50. In outline: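 Enzyme from baculovirus-infected Sf21 cells, 25 nM final, was pre-incubated 30 min at ambient temperature with compound (ten-point, 1:3 dilution from 100000 nM, 1% DMSO), then reacted 150 min with 300 μM ATP and 3 μM dephosphorylated MBP. ADP was read by luminescence; EC50 from four-parameter fit.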
RIPK1 (recombinant GST-RIPK1 kinase domain, residues 1-327), sequence (Q13546 1-327): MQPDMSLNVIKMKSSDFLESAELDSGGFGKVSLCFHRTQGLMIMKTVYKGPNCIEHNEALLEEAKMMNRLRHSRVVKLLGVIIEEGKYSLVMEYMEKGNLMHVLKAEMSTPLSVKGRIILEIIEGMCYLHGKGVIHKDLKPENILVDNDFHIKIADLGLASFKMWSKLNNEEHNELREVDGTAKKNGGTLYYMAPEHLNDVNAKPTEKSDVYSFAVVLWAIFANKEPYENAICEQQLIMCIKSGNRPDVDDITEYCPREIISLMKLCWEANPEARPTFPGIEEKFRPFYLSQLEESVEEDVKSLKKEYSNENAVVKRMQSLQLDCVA

For `O=C1N2[C@@H](CC[C@H]2c2ccccc2F)OC12CCN(c1cccc3ncnn13)CC2` [Example 4.253, (5′S,7a′R)-5′-(2-fluorophenyl)-1-([1,2,4]triazolo[1,5-a]pyridin-5-yl)tetrahydro-3′H-spiro[piperidine-4,2′-pyrrolo[2,1-b] [1,3]oxazol]-3′-one], the 50% effective concentration (EC50) was less than 25 nM. Under `O=C1N2[C@@H](CC[C@H]2c2ccccc2)OC12CCN(c1ccc(-c3cscn3)c3ncnn13)CC2` [Example 21.19, (5′S,7a′R)-5′-phenyl-1-[8-(1,3-thiazol-4-yl)[l,2,4]triazolo[1,5-a]pyridin-5-yl]tetrahydro-3′H-spiro[piperidine-4,2′-pyrrolo[2,1-b][1,3]oxazol]-3′-one] stands less than 25 nM; under `N#Cc1cnc(N2CCC3(CC2)S[C@@H]2CC[C@@H](c4ccccc4)N2C3=O)n2ncnc12` [Example 4.146, 5-[(5′S,7a′R)-3′-oxo-5′-phenyltetrahydro-1H,3′H-spiro[piperidine-4,2′-pyrrolo[2,1-b] [1,3]thiazol]-1-yl] [1,2,4]triazolo[1,5-c] pyrimidine-8-carbonitrile], less than 25 nM. Under `O=C1N2[C@@H](CC[C@H]2c2ccccc2)OC12CCN(c1ncnc3ccnn13)CC2F` (single isomer, unassigned) [Example 4.97, (3[R or S],4[S or R], 5′S,7a′R)-3-fluoro-5′-phenyl-1-(pyrazolo [1,5-a][1,3,5]triazin-4-yl)tetrahydro-3′H-spiro[piperidine-4,2′-pyrrolo[2,1-b]oxazol]-3′-one] stands less than 25 nM; under `Cc1cccc(C(=O)N2CCC3(CC2)O[C@@H]2CC[C@@H](c4cccc(F)c4)N2C3=O)c1F` [Example 6.119, (5′S,7a′R)-1-(2-fluoro-3-methylbenzene-1-carbonyl)-5′-(3-fluoro-phenyl)tetrahydro-3′H-spiro[piperidine-4,2′-pyrrolo[2,1-b][1,3]oxazol]-3′-one], less than 25 nM; under `O=C1N2[C@@H](CC[C@H]2c2ccccc2)OC12CCN(c1ccc(-c3ncco3)cn1)CC2` [Example 21.16, (5′S,7a′R)-1-[5-(1,3-oxazol-2-yl)pyridin-2-yl]-5′-phenyltetrahydro-3′H-spiro[piperidine-4,2′-pyrrolo[2,1-b][1,3]oxazol]-3′-one], less than 25 nM.

On to `O=C1N2[C@@H](CC[C@H]2c2ccccc2)OC12CCN(c1cc(C(F)(F)F)ncn1)CC2` [Example 4.33, (5′S,7a′R)-5′-phenyl-1-[6-(trifluoromethyl)pyrimidin-4-yl]tetrahydro-3′H-spiro[piperidine-4,2′-pyrrolo[2,1-b] [1,3]oxazol]-3′-one], for which the concentration giving a half-maximal response (EC50) amounted to 50 nM. As for `N#Cc1ccc(C(=O)N2CCC3(CC2)O[C@@H]2CC[C@@H](c4ccccc4)N2C3=O)cc1` [Example 6.151, 4-[(5′S,7a′R)-3′-oxo-5′-phenyltetrahydro-1H,3′H-spiro[piperi-dine-4,2′-pyrrolo[2,1-b][1,3]oxazole]-1-carbonyl]benzonitrile], the EC50 was 349 nM. For `Cc1ccc([C@@H]2CC[C@H]3OC4(CCN(C(=O)c5ccccc5)CC4)C(=O)N32)cc1F` [Example 17.15, (5′S,7a′R)-1-(benzenecarbonyl)-5′-(3-fluoro-4-methylphenyl)tetrahydro-3′H-spiro[piperidine-4,2′-pyrrolo[2,1-b][1,3]oxazol]-3′-one], the EC50 is less than 25 nM.

With `O=C(c1cc(F)ccc1F)N1CCC2(CC1)SC1CCC(c3ccccc3)N1C2=O` (centres unmarked) [Example 1.24, 1-(2,5-difluorobenzene-1-carbonyl)-5′-phenyltetrahydro-3′H-spiro[piperidine-4,2′-pyrrolo[2,1-b] [1,3]thiazol]-3′-one], the EC50 turned out to be 23 nM. The figure for `CCOC(=O)c1coc(-c2ccnc(N3CCC4(CC3)O[C@@H]3CC[C@@H](c5ccccc5)N3C4=O)c2)n1` [Example 4.173, ethyl 2-{2-[(5′S,7a′R)-3′-oxo-5′-phenyltetrahydro-1H,3′H-spiro[piperidine-4,2′-pyrrolo[2,1-b] [1,3]oxazol]-1-yl]pyridin-4-yl}-1,3-oxazole-4-carboxylate] is 69.2 nM.

Take `O=C(c1cc2n(n1)CCCC2)N1CCC2(CC1)O[C@@H]1CC[C@@H](c3cc(F)cc(F)c3)N1C2=O` [Example 5.75, (5′S,7a′R)-5′-(3,5-difluoro-phenyl)-1-(4,5,6,7-tetra-hydropyrazolo[1,5-a]-pyridine-2-carbonyl)tetra-hydro-3′H-spiro[piperi-dine-4,2′-pyrrolo[2,1-b]oxazol]-3′-one]: the EC50 came out at 524 nM.

For `CCOc1cccc(C(=O)N2CCC3(CC2)O[C@@H]2CC[C@@H](c4cc(F)cc(F)c4)N2C3=O)n1` [Example 6.83, (5′S,7a′R)-5′-(3,5-difluorophenyl)-1-(6-ethoxypyridine-2-carbonyl)tetrahydro-3′H-spiro[piperidine-4,2′-pyrrolo[2,1-b] [1,3]oxazol]-3′-one], the concentration for a half-maximal effect (EC50) is 31.8 nM. Under `O=C1N2C(=NC13CCN(c1cc(-c4cnn(C(F)F)c4)ncn1)CC3)CC[C@H]2c1cc(F)cc(F)c1` [Example 10.3, (S)-1-(6-(1-(difluoromethyl)-1H-pyrazol-4-yl)pyrimidin-4-yl)-5′-(3,5-difluorophenyl)-6′,7′-dihydro-3′H,5′H-spiro[piperidine-4,2′-pyrrolo[1,2-a]imidazol]-3′-one] stands 355 nM; under `O=C1N2[C@@H](CC[C@H]2c2ccccc2)OC12CCN(c1ccc(Cl)c3ncnn13)CC2` [Example 15.3, (5′S,7a′R)-1-(8-chloro-[1,2,4]triazolo[1,5-a]pyridin-5-yl)-5′-phenyltetrahydro-3′H-spiro[piperidine-4,2′-pyrrolo[2,1-b]oxazol]-3′-one, TFA salt], less than 25 nM; under `N#Cc1cccc(C(=O)N2CCC3(CC2)O[C@@H]2CC[C@@H](c4cccc(F)c4)N2C3=O)c1` [Example 6.115, 3-[(5′S,7a′R)-5′-(3-fluorophenyl)-3′-oxo-tetrahydro-1H,3′H-spiro[piperidine-4,2′-pyrrolo[2,1-b][1,3]-oxazole]-1-carbonyl] benzonitrile], less than 25 nM. Under `Cc1nc(N2CCC3(CC2)O[C@@H]2CC[C@@H](c4cc(F)cc(F)c4)N2C3=O)ncc1F` [Example 4.61, (5′S,7a′R)-5′-(3,5-difluorophenyl)-1-(5-fluoro-4-methylpyrimidin-2-yl)tetrahydro-3′H-spiro[piperidine-4,2′-pyrrolo[2,1-b] [1,3]oxazol]-3′-one] stands 53.4 nM. `CC(C)Oc1cccc(C(=O)N2CCC3(CC2)O[C@@H]2CC[C@@H](c4cc(F)cc(F)c4)N2C3=O)n1` [Example 6.90, (5′S,7a′R)-5′-(3,5-difluorophenyl)-1-{6-[(propan-2-yl)oxy]-pyridine-2-carbonyl} tetrahydro-3′H-spiro [piperidine-4,2′-pyrrolo[2,1-b][1,3]-oxazol]-3′-one]: the concentration giving a half-maximal response (EC50) was 36.1 nM. On to `O=C1N2[C@@H](CC[C@H]2c2cc(F)cc(F)c2)OC12CCN(S(=O)(=O)c1cccc(F)c1)CC2` [Example 8.4, (5′S,7a′R)-5′-(3,5-difluorophenyl)-1-[(3-fluorophenyl)sulfonyl] tetrahydro-3′H-spiro[piperidine-4,2′-pyrrolo[2,1-b][1,3]oxazol]-3′-one], for which the half-maximal effective concentration (EC50) was determined as 672 nM. Under `COc1nc(N2CCC3(CC2)O[C@@H]2CC[C@@H](c4ccccc4)N2C3=O)ncc1-c1ncco1` [Example 21.10, (5′S,7a′R)-1-[4-methoxy-5-(1,3-oxazol-2-yl)pyrimidin-2-yl]-5′-phenyltetrahydro-3′H-spiro[piperidine-4,2′-pyrrolo[2,1-b][1,3]oxazol]-3′-one] stands less than 25 nM. `N#Cc1cc(N2CCC3(O[C@@H]4CC[C@@H](c5ccccc5)N4C3=O)C(F)C2)ncn1` (single isomer, unassigned) [Example 4.95, 6-((3[S or R],4[R or S], 5′S,7a′R)-3-fluoro-3′-oxo-5′-phenyltetrahydro-3′H-spiro[piperidine-4,2′-pyrrolo[2,1-b]oxazol]-1-yl)pyrimidine-4-carbonitrile]: the EC50 came to 58.3 nM. Consider `COc1ccnc(C(=O)N2CCC3(CC2)O[C@@H]2CC[C@@H](c4cc(F)cc(F)c4)N2C3=O)c1` [Example 6.91, (5′S,7a′R)-5′-(3,5-difluorophenyl)-1-(4-methoxypyridine-2-carbonyl)tetrahydro-3′H-spiro[piperidine-4,2′-pyrrolo[2,1-b] [1,3]oxazol]-3′-one], for which the EC50 was 706 nM. Regarding `COc1cnc(N2CCC3(CC2)O[C@@H]2CC[C@@H](c4ccccc4)N2C3=O)n2ncnc12` [Example 19.6, (5′S,7a′R)-1-(8-methoxy[1,2,4]triazolo [1,5-c]pyrimidin-5-yl)-5′-phenyltetrahydro-3′H-spiro[piperidine-4,2′-pyrrolo[2,1-b][1,3]oxazol]-3′-one], the EC50 came to 45.4 nM. `O=C1N2[C@@H](CC[C@H]2c2cc(F)cc(F)c2)OC12CCN(c1ccc(Cl)c3ccnn13)CC2` [Example 15.1, (5′S,7a′R)-1-(4-chloropyrazolo[1,5-a]pyridin-7-yl)-5′-(3,5-difluorophenyl)tetrahydro-3′H-spiro[piperidine-4,2′-pyrrolo[2,1-b]oxazol]-3′-one, TFA]: the concentration giving a half-maximal response (EC50) is less than 25 nM. The figure for `CC(C)OC(=O)c1ccc(N2CCC3(CC2)O[C@@H]2CC[C@@H](c4ccccc4)N2C3=O)nc1` [Example 4.190, propan-2-yl 6-[(5′S,7a′R)-3′-oxo-5′-phenyltetrahydro-1H,3′H-spiro[piperidine-4,2′-pyrrolo[2,1-b] [1,3]oxazol]-1-yl]pyridine-3-carboxylate] is 92.6 nM.

As for `N#Cc1ccc(N2CCC3(CC2)O[C@@H]2CC[C@@H](c4ccccc4)N2C3=O)n2ncc(Cl)c12` [Example 4.182, 3-chloro-7-[(5′S,7a′R)-3′-oxo-5′-phenyltetrahydro-1H,3′H-spiro[piperidine-4,2′-pyrrolo[2,1-b] [1,3]oxazol]-1-yl]pyrazolo[1,5-a] pyridine-4-carbonitrile], the EC50 was less than 25 nM.
